From ChEMBL document CHEMBL3430912, “GSK Tres Cantos Anti-Kinetoplastid Screening (TCAKS) Data”

Legend:
Trypanosoma cruzi [1] = test: GSK_TCAKS: pIC50 Trypanosoma cruzi viability assay using beta-GAL activity. This assay was run at single shot at 5uM compound concentration per well. The biological reagents consisted of NIH-3T3 host cells and trypomastigotes parasitic cells; both cell types were set to a 3.3 * 10^5 cells/mL dilution in assay DMEM by means of a CASY cell counter device using a 60um capillary. 6 uL of the mixture were dispensed per well (about 1 * 10^3 host-cells and 1 * 10^3 parasites) with a Multidrop Combi dispenser. […] In all wells, the percentage of DMSO never exceeded 0.5%. Plates incubated for four days at 37C, 5% CO2. The substrate used for the assay fluorescence intensity (FLINT) readout was resorufin-beta-D-galactopiranoside (Sigma-Aldrich) at 5uM per well. It was diluted in PBS supplemented with the soft detergent Igepal (Fluka).; type: functional, organism-based, Mus musculus; details: Tulahuen, NIH3T3
Trypanosoma cruzi [2] = test: (§1) GSK_TCAKS: pIC50 Trypanosoma cruzi Imaging: Infected Cells. […] Cells were then washed once with PBS before infection. T. cruzi trypomastigotes, collected at days 5 to 8 after infection from LLC-MK2 parasite infected cultures, were allowed to swim out for 4h at 37C from a centrifuged pellet (2,500 rpm/10 min/room temperature). Trypomastigotes were then collected and counted in a CASY Cell Counter. Trypomastigotes, in supplemented DMEM, were added to H9c2 cultures in a multiplicity of infection of 1 and incubated for 18 h. Cells were washed once with PBS before incubation of the infected H9c2 monolayer with trypsin (Life-Technologies) to detach cells from the flask. Cells were counted in a CASY Cell Counter using a 150 um capillary and their density set at 5 * 10^4 cells per mL in supplemented assay DMEM. Infected H9c2 were dispensed into 384-well poly-lysine coated assay plates at 50uL per well using a Multidrop Combi dispenser. After seeding them, the plates were incubated at 37C, 5% CO2 for 72h. Cultures were then fixed and stained by addition of 50 uL of a solution containing 8% formaldehyde and 4 uM DRAQ5 DNA dye (BioStatus, UK) per well. […] Five images were collected per well for reliable statistical analysis. Automated image analysis was performed with a script developed on Acapella High Content Imaging and Analysis Software (PerkinElmer). Output: percentage of infected cells per well as a second infection marker.; type: functional, organism-based, Rattus norvegicus; details: H9c2, 4 h
Trypanosoma cruzi [3] = test: GSK_TCAKS: pIC50 Trypanosoma cruzi Imaging: Amastigotes/Cell. […] Cells were then washed once with PBS before infection. T. cruzi trypomastigotes, collected at days 5 to 8 after infection from LLC-MK2 parasite infected cultures, were allowed to swim out for 4h at 37C from a centrifuged pellet (2,500 rpm/10 min/room temperature). Trypomastigotes were then collected and counted in a CASY Cell Counter. Trypomastigotes, in supplemented DMEM, were added to H9c2 cultures in a multiplicity of infection of 1 and incubated for 18 h. Cells were washed once with PBS before incubation of the infected H9c2 monolayer with trypsin (Life-Technologies) to detach cells from the flask. Cells were counted in a CASY Cell Counter using a 150 um capillary and their density set at 5 * 10^4 cells per mL in supplemented assay DMEM. Infected H9c2 were dispensed into 384-well poly-lysine coated assay plates at 50uL per well using a Multidrop Combi dispenser. After seeding them, the plates were incubated at 37C, 5% CO2 for 72h. Cultures were then fixed and stained by addition of 50 uL of a solution containing 8% formaldehyde and 4 uM DRAQ5 DNA dye (BioStatus, UK) per well. […] Five images were collected per well for reliable statistical analysis. Automated image analysis was performed with a script developed on Acapella High Content Imaging and Analysis Software (PerkinElmer). Output: number of amastigotes per cell as infection level measurement.; type: functional, organism-based, Rattus norvegicus; details: H9c2, 4 h
Trypanosoma cruzi [4] = test: as §1, with “H2C9” for “Trypanosoma cruzi”, “H9c2 Host Cardiomyocytes.” for “Infected Cells.”, “Number” for “percentage”, “H9c2 Host Cardiomyocytes nuclei to determine drug-related cytotoxicity.” for “infected cells per well as a second infection marker.”; type: functional, organism-based, Rattus norvegicus; details: H9c2, 4 h
Leishmania donovani [5] = test: GSK_TCAKS: pIC50 Leishmania donovani viability assay using fluorescence intensity. Assay plates (1536-well) were prepared by adding 30nL per well of compound. For single shot assay, the final compound concentration was 5uM. […] Briefly, eGFP LdBOB axenic amastigotes were harvested, fixed and counted in a CASY cell counter (Roche-Applied Science). A final concentration of 1.5 * 10^5 cells per well were prepared in amastigote media containing 500 U/mL penicillin/streptomycin (Invitrogen) and 6uL was dispensed to each experimental well using a Multidrop Combi dispenser (Thermo Scientific). 6uL of assay media was dispensed to control columns used as reference for 100% compound response. Following incubation for 72 h at 37C, 5% CO2, 2 uL of resazurin was added to each well at a final concentration of 0.5 mM in phosphate buffered saline (PBS) with IGEPAL (Sigma-Aldrich), 0.05% (v/v).; type: functional, organism-based
Leishmania donovani [6] = test: GSK_TCAKS: pIC50 Leishmania donovani Imaging: Infected Macrophages. Assay plates (384-well) were prepared by adding 250nL of compound to each well. For single shot assay, the final compound concentration was 5 uM. […] Automated image analysis was performed with a script developed on Acapella High Content Imaging and Analysis Software (PerkinElmer). Output: Percent of infected macrophage cells were reported for each well.; type: functional, organism-based, Homo sapiens; details: THP-1
Leishmania donovani [7] = test: GSK_TCAKS: pIC50 Leishmania donovani Imaging: Amastigotes/Macrophages. Assay plates (384-well) were prepared by adding 250nL of compound to each well. For single shot assay, the final compound concentration was 5 uM. […] Automated image analysis was performed with a script developed on Acapella High Content Imaging and Analysis Software (PerkinElmer). Output: Average number of amastigotes per macrophage cell were reported for each well.; type: functional, organism-based, Homo sapiens; details: THP-1
Leishmania donovani [8] = test: GSK_TCAKS: pIC50 Leishmania donovani Imaging: THP-1 Host Macrophages. Assay plates (384-well) were prepared by adding 250nL of compound to each well. For single shot assay, the final compound concentration was 5 uM. […] Automated image analysis was performed with a script developed on Acapella High Content Imaging and Analysis Software (PerkinElmer). Output: THP-1 cell count were reported for each well.; type: functional, organism-based, Homo sapiens
[9] = test system: Trypanosoma brucei brucei; test: GSK_TCAKS: pIC50 Trypanosoma brucei viability assay using fluorescence intensity. Assay plates (1536-well) were prepared by dispensing 25nL of compound solution per well using an Echo acoustic dispenser (Labcyte).; type: functional, organism-based; details: Lister 427, 2 h
[10] = test system: Trypanosoma brucei brucei; test: GSK_TCAKS: pIC50 Trypanosoma brucei viability assay using luminiscence. Assay plates (1536-well) were prepared. T. brucei cultures were harvested and counted in a CASY cell counter. A parasite suspension was prepared at a final concentration of 5 * 10^4 cells/mL in complete HMI9 medium and 6uL was dispensed to all wells containing compounds using a Multidrop Combi dispenser. 6uL of HMI9 media with 0.4% DMSO were dispensed to control columns. Plates were incubated for 24 h at 37C, 5% CO2 then tempered for 10 min at room temperature. ATP content was quantified by adding 4 uL of CellTiter-Glo Reagent (Promega) according to the manufacturer's instructions. Luminescence was measured using a ViewLux.; type: functional, organism-based; details: Lister 427, CASY
[11] = GSK_TCAKS: pIC50 HepG2 human cell line viability assay using luminiscence. […] Seeding density was checked to ensure that new mono-layers were not more than 50% confluent at the time of harvesting. Cell suspension was added to 500 mL of the same medium at a final density of 1.2 * 10^5 cells/mL. This cell suspension was dispensed (25 uL, 3000 cells per well) into 384-well clear-bottom plates using a Multidrop Combi dispenser. Prior to addition of the cell suspension, the screening compounds (250 nL) were pre-dispensed into the plates with an Echo liquid handler. Plates were incubated for 48 h at 37C, 5% CO2. After incubation, plates equilibrated at room temperature for 30 min before proceeding to develop the luminescent signal. The signal developer, CellTiter-Glo Reagent, was allowed to equilibrate at room temperature for 30 min and added to the plates (25uL per well) using a Multidrop Combi dispenser. Plates were left for 10 min at room temperature for stabilization and then read using a ViewLux.; type: toxicity, cell-based
NIH3T3 = test: GSK_TCAKS: pIC50 NIH 3T3 cell line viability assay using luminiscence. Tissue culture surface treated assay plates (1536-well) were used. […] The 100% cells survival control was determined exposing the host-cells to a 0.5% DMSO concentration, whereas the 100% toxicity control was achieved by seeding the cells in presence of Amphotericin B at 50uM. Plates were incubated for four days at 37C, 5% CO2. The assay readout was developed by addition of 5uL of CellTiter-Glo Reagent following the manufacturer's instructions. Luminiscence was measured using a ViewLux.; type: functional, cell-based; details: Mus musculus, NIH3T3, 96 h
[12] = molecular target: Sterol 14-alpha demethylase (Trypanosoma cruzi (strain CL Brener), UniProt Q7Z1V1); test: GSK_TCAKS: pIC50 CYP51 from Trypanosoma cruzi.; type: functional
Sterol 14-alpha demethylase, sequence (Q7Z1V1 whole entry): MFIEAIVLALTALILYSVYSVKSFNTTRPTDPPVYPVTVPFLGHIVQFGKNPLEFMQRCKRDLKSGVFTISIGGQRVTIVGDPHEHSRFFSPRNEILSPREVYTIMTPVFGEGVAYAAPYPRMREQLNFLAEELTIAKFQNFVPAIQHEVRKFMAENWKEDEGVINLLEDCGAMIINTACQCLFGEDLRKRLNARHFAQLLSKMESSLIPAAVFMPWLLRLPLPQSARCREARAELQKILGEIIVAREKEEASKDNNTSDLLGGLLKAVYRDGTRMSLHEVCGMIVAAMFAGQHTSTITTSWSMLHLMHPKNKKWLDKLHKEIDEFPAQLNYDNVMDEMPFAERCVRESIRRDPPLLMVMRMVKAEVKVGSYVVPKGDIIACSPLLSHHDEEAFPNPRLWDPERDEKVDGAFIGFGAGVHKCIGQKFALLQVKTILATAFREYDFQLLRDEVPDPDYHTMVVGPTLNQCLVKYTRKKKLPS

Compound | IC50 (Trypanosoma cruzi [1]) [µM] | IC50 (Trypanosoma cruzi [2]) [µM] | IC50 (Trypanosoma cruzi [3]) [µM] | IC50 (Trypanosoma cruzi [4]) [µM] | IC50 (Leishmania donovani [5]) [µM] | IC50 (Leishmania donovani [6]) [µM] | IC50 (Leishmania donovani [7]) [µM] | IC50 (Leishmania donovani [8]) [µM] | IC50 [9] [µM] | IC50 [10] [µM] | IC50 at 48 h [11] [µM] | IC50 (NIH3T3) [µM] | IC50 [12] [µM]
Cc1ccc(NC(=O)c2ccc(Cl)c(NC(=O)c3ccc([N+](=O)[O-])cc3)c2)cc1 | 0.631 | 0.501 | 0.2 | > 50.1 | > 50.1 | > 50.1 | > 50.1 | > 50.1 | 7.94 | 15.8 | > 100 | 20 | > 100
C=CCn1nc([N+](=O)[O-])nc1Oc1ccc(Cl)cc1Cl | 0.251 | 0.251 | 0.126 | > 50.1 | > 50.1 | > 50.1 | 39.8 | 39.8 | 20 | > 39.8 | > 100 | 50.1 | 20
Cc1c(C#N)c([N+](=O)[O-])nn1Cc1cccc(Cl)c1Cl | 0.2 | 0.1 | 0.0398 | > 50.1 | > 50.1 | > 50.1 | 15.8 | 15.8 | 15.8 | 25.1 | 79.4 | 39.8 | > 100
Cc1c(CNC(=O)c2ccc(Cn3cc(Cl)c([N+](=O)[O-])n3)cc2)cnn1C | 1 | 1.58 | 0.794 | > 50.1 | > 50.1 | > 50.1 | > 50.1 | > 50.1 | 5.01 | 10 | > 100 | > 50.1 | > 100
Cc1c([N+](=O)[O-])c(C(=O)Nc2sc3c(c2C#N)CCC(C)C3)nn1C (stereo not given) | 2.51 | 2.51 | 1.58 | > 50.1 | 25.1 | 31.6 | 15.8 | > 50.1 | > 39.8 | > 39.8 | > 100 | 12.6 | > 100
O=C(Nc1ccc(Br)cn1)c1ccc(Cn2cnc([N+](=O)[O-])n2)cc1 | 0.158 | 0.126 | 0.0794 | > 50.1 | > 50.1 | > 50.1 | > 50.1 | > 50.1 | 1.58 | 3.16 | > 100 | > 50.1 | > 100
CC1=NN(C(=O)CCn2cnc([N+](=O)[O-])n2)C(O)(C(F)(F)F)C1 (stereo not given) | 2 | 6.31 | 1.26 | > 50.1 | > 50.1 | > 50.1 | > 50.1 | > 50.1 | > 39.8 | > 39.8 | > 100 | > 50.1 | > 100
O=C(c1cc2cc(Cl)ccc2[nH]1)N1CCCCC1c1cccnc1 (stereo not given) | 0.251 | 0.126 | 0.126 | 31.6 | 50.1 | 31.6 | 10 | 15.8 | 25.1 | 15.8 | 39.8 | 39.8 | 0.0631
O=S(=O)(c1ccccc1C(F)(F)F)N1CCN(Cc2ccc(-n3ccnc3)cc2)CC1 | 0.251 | 0.251 | 0.2 | > 50.1 | 6.31 | > 50.1 | 25.1 | 15.8 | > 39.8 | > 39.8 | > 100 | > 50.1 | 0.1
CC1(Oc2cncc(Cl)c2)CCN(Cc2cc3ccccc3[nH]2)C1 (stereo not given) | 1 | 1.58 | 1 | 10 | > 50.1 | 20 | 31.6 | 31.6 | > 39.8 | > 39.8 | 31.6 | 10 | 10
